The structures appear in SMILES notation. In brackets after ≈: the same amount, converted by molar mass. *1 amine or outer side, *2 acyl side, *3 side chain or, on linkers, in order; H or OH if unused. Where a SMILES comes first, the peptide text is derived from it. The star is where a group is joined. ξ: configuration not given here. DAMPA = CN(Cc1cnc2nc(N)nc(N)c2n1)c1ccc(C(=O)*)cc1; ξγGlu = O=C(O)C(CCC(=O)[*:2])N[*:1]

Series [1] deals with MDA-MB-231. The experiment in a line: Cytotoxicity against human MDA-MB-231 cells incubated for 30 mins by CellTiter-Glo luminescent Cell viability assay. In kind it is functional, cell-based. The note with it: MDA-MB-231, 0.5 h.
In series [2] the test system is MCF7. As to the kind of experiment: Antitumor activity against human MCF7 cells xenografted in BALB/c nude mouse assessed as tumor growth inhibition at 200 mg/kg, ip administered every other day for 2 weeks relative to control. In kind it is functional. The note with it: 336 h, read-out: TGI. Background: In xenograft studies the graft and the host belong to different species.

The test system of series [3] is MCF7. As to the kind of experiment: Cytotoxicity against human MCF7 cells incubated for 72 hrs by SRB assay. In kind it is functional, cell-based. The note with it: MCF7, 72 h. In general terms: In SRB staining, fixed cells bind dye roughly in proportion to their protein.
The subject of series [4] is MCF7. The experiment in a line: Antiproliferative activity against human MCF7 assessed as reduction in cell number at 10 uM measured after 6 days in presence of 100 uM AICAR by sulforhodamine B assay relative to control. Further details: scale not given: the % may be the effect or the level left. The note with it: time 6 day. In kind it is functional.
The test system of series [5] is MDA-MB-231. As to the kind of experiment: Synergistic antiproliferative activity against human MDA-MB-231 cells assessed as cell survival rate at 0.1 uM incubated for 72 hrs in presence of alpha-tocopherol measured every 24 hrs by MTT assay relative to control. The note with it: read-out: Survival. It counts as functional.
The test system of series [6] is MDA-MB-231. The experiment in a line: Synergistic antiproliferative activity against human MDA-MB-231 cells assessed as cell survival rate at 10 uM incubated for 72 hrs in presence of alpha-tocopherol measured every 24 hrs by MTT assay relative to control. It counts as functional. The note with it: read-out: Survival.
In series [7] the test system is MCF7. As to the kind of experiment: Antitumor activity against human MCF7 cells xenografted in BALB/c nude mouse assessed as tumor growth inhibition at 50 mg/kg, ip administered once per week for 2 weeks relative to control. It counts as functional. The note with it: 336 h, read-out: TGI.
Series [8] concerns MCF7. The experiment in a line: Synergistic antitumor activity against human MCF7 cells xenografted in BALB/c nude mouse assessed as tumor growth inhibition at 50 mg/kg, ip administered once per week for 2 weeks in presence of AICA riboside relative to control. It counts as functional. The note with it: 336 h, read-out: TGI.
Series [9] deals with MCF7. The experiment in a line: Antineoplastic activity against human MCF7 cells incubated for 72 hrs by prestoblue reduction assay. It counts as functional, cell-based. The note with it: MCF7, 72 h.
Series [10] can be described thus: Drug metabolism in human assessed as carboxypeptidase-G2 (unknown origin)- mediated drug conversion to DAMPA and glutamate. It counts as ADME.
Series [11] is described as follows: Drug excretion in patient bile at 10 mg/m2, po by HPLC method. The note with it: human, read-out: Drug excretion. In kind it is ADME, organism-based.
A short description of series [12]: Blood brain barrier permeability in iv dosed human. It counts as ADME, organism-based.
In another series the target is Albumin (Homo sapiens, UniProt P02768). As to the kind of experiment: Binding affinity to human serum albumin by Scatchard plot. It counts as ADME, cell-free.
A short description of series [13]: Half life in plasma (unknown origin). It counts as ADME, cell-free.
A short description of series [14]: Oral bioavailability in pediatric patient at > 40 mg/m2. The note with it: human, in vivo. It counts as ADME, organism-based.
Series [15] can be described thus: Oral bioavailability in pediatric patient at <= 40 mg/m2. It counts as ADME, organism-based. The note with it: human, in vivo.
The nature of series [16]: Aqueous solubility of compound. In kind it is physicochemical. The note with it: aqueous medium.

Chain of Albumin (P02768 whole entry): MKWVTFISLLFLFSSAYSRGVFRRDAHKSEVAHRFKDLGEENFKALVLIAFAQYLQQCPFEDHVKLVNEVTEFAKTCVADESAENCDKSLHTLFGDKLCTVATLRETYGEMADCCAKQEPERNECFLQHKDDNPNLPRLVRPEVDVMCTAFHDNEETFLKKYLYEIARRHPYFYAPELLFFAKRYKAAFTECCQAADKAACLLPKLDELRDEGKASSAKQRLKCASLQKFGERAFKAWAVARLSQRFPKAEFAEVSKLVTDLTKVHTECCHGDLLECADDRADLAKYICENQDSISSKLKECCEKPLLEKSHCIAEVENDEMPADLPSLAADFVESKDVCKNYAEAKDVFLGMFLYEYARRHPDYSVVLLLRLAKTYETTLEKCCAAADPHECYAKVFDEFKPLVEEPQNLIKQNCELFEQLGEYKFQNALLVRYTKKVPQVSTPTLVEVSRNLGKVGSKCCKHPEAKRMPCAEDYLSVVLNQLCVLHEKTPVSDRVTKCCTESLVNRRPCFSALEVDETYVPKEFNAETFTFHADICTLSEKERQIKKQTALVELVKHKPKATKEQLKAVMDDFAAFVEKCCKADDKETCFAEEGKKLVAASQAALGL

Regarding `CC[C@H](C)[C@H](NC(=O)[C@H](C)NC(=O)[C@@H](NC(=O)[C@H](Cc1ccc(O)cc1)NC(=O)CNC(=O)CCC(NC(=O)c1ccc(N(C)Cc2cnc3nc(N)nc(N)c3n2)cc1)C(=O)O)[C@@H](C)O)C(=O)N[C@@H](C)C(=O)N[C@@H](Cc1c[nH]c2ccccc12)C(=O)N[C@H](C(=O)N[C@@H](CCCCN)C(=O)N[C@@H](C)C(=O)N[C@@H](Cc1ccccc1)C(=O)N[C@H](C(=O)N[C@@H](CCCNC(=N)N)C(=O)N[C@@H](CCCCN)C(=O)N[C@@H](CC(C)C)C(=O)N[C@@H](CCCNC(=N)N)C(=O)N[C@@H](CCCCN)C(N)=O)[C@@H](C)CC)C(C)C` (stereo partly drawn) ({DAMPA-ξγGlu}-GYTAIAWVKAFIRKLRK-NH2), in the series on MDA-MB-231 [1], the response was half-maximal at 3800 nM (EC50).
As to `NC(=O)c1ncn([C@@H]2O[C@H](CO)[C@@H](O)[C@H]2O)c1N` [ACADESINE], the inhibition in vivo at 200 mg/kg in the series on MCF7 [2] turned out to be 42.2%.
For `COc1cccc2c1C(=O)c1c(O)c3c(c(O)c1C2=O)C[C@@](O)(C(=O)CO)C[C@@H]3O[C@H]1C[C@H](N)[C@@H](O)[C@H](C)O1` [EPIRUBICIN], the IC50 – broadly, the concentration that inhibits the measured activity by half – in the series on MCF7 [3] turned out to be 550 nM.
In the case of `CN(Cc1cnc2nc(N)nc(N)c2n1)c1ccc(C(=O)N[C@@H](CCC(=O)O)C(=O)O)cc1` [METHOTREXATE], in the series on MCF7 [4], the Activity is 50%. The results for the IC50 with MCF7 [3] and with MCF7 [9] were above 22000 nM and 15 nM, respectively. For the same compound, the viability at 0.1 µM in the series with MDA-MB-231 [5] is above 60%. Besides, the viability at 10 µM with MDA-MB-231 [6] was determined as 35%. For the same compound, the results for the inhibition in vivo at 50 mg/kg in the series on MCF7 [7] and in the series on MCF7 [8] were 55% and 79.9%, respectively. Moreover, in [10], the Drug metabolism is listed as above 98%. Further, the dose excreted in series [11] was 8.7%. This compound also had a pBBB in series [12] of 1.7%. Further, the K on Albumin is 820 M⁻¹. Moreover, in [13], the half-life – broadly, the time needed for the level to fall by half in the phase considered – is 2 h. For the same compound, the bioavailability – broadly, the share of a dose that reaches the circulation, judged against a reference dose that is usually intravenous – in series [14] worked out at 18%; in [15] it was 42%. Moreover, in series [16], the concentration in solution (solubility) was 10 µg/mL (≈ 22 µM).

These data come from ChEMBL document CHEMBL4673179 (RSC Med Chem, 2020).
